Converted amounts (≈) assume the structure as drawn.

The test system of this test is Mycobacterium tuberculosis. The experiment in a line: Antimycobacterial activity against Mycobacterium tuberculosis H37Rv assessed as growth inhibition after 7 days by resazurin method. The class given is functional. Conditions: 168 h.

Regarding `CC(C)[C@@H]1OC(=O)[C@H](C)[C@H](O)[C@H](Cc2cccnc2)NC(=O)[C@@H](NC(=O)c2ncccc2O)[C@@H](C)OC1=O`, the MIC came out at 12.5 µg/mL (≈ 23.6 µM).

As for `CC(C)[C@H]1OC(=O)[C@H](C)[C@H](O)[C@H](Cc2cccnc2)NC(=O)[C@@H](NC(=O)c2ncccc2O)[C@@H](C)OC1=O`, the minimal inhibitory concentration (MIC) worked out at 1.56 µg/mL (≈ 2.95 µM).

As for `CC/C(C)=C1\OC(=O)[C@H](C)[C@H](O)[C@H](Cc2cccnc2)NC(=O)[C@@H](NC(=O)c2ncccc2O)[C@@H](C)OC1=O` [PYRIDOMYCIN], the minimum inhibitory concentration (MIC) was 0.39 µg/mL (≈ 0.721 µM).

Values taken from ChEMBL document CHEMBL2321872, “Synthesis and antimycobacterial activity of 2,1'-dihydropyridomycins” (ACS Med Chem Lett, 2013).
